These are literature values, as cited in patent US20010026813A1, “Extract from scutellariae radix having neuroprotective effects and pharmaceutical preparations containing the same” (priority 2000, published 2001).

Read-outs that look alike come from different tables or passages of the source.

The subject of this data set is 4-VO models.

As to `O=[N+]([O-])c1cccc2c(Br)n[nH]c12` [3-bromo-7-nitroindazole], the defensive level (dose not given) was 20%.

Regarding `O=[N+]([O-])c1cccc2cn[nH]c12` [Example 7-NI], where the note is “dose not given”, the defensive level is given as 17.5%. Regarding `CC1=NN=C(c2ccc(N)cc2)c2cc3c(cc2C1)OCO3` [GYK152466], the defensive level (dose not given) is 11%.

As for `COC(=O)[C@@H](N)CCCNC(=N)N[N+](=O)[O-]` [L-NAME], the defensive level (dose not given) is given as 23%. Consider `CCNCc1cc(C(C)(C)C)c(O)c(C(C)(C)C)c1` [LY231617], for which the defensive level (dose not given) is given as 25-30%. Consider `CNC(=O)N1N=C(c2ccc(N)cc2)c2cc3c(cc2CC1C)OCO3` (stereo not drawn) [LY300168], for which, for the setting “dose not given”, the defensive level was 23%. As to `C[C@]12N[C@H](Cc3ccccc31)c1ccccc12` [MK-801], the defensive level (2 mg/kg, i.p.) is 24%. `NS(=O)(=O)c1cccc2c1c([N+](=O)[O-])cc1nc(O)c(O)nc12` [NBQX]: for the setting “30 mg/kg, i.p.”, the defensive level is reported as 42%.

As to `OC(CN1CCC(Cc2ccc(F)cc2)CC1)c1ccc(Cl)cc1` (stereo not drawn) [eliprodil], the defensive level (20 mg/kg, i.p.) is given as 25%.
